This passage reports inhibition and IC50 results from patent US20050272784A1 (priority 2004, published 2005).

The first test concerns type III protein secretion system of P. aeruginosa PA103 (ExoU secretion). Description: Tertiary assay: Type III-dependent secretion of ExoU by P. aeruginosa PA103. The format is cell-based. The settings on record: Pseudomonas aeruginosa, ExoU Conc 100 μM, read-out: ExoU % Inh. The text has this: Tertiary assay: inhibition of Type III protein secretion of effectors from a Pseudomonas aeruginosa system. Type III protein secretion is used by P. aeruginosa to secrete several essential virulence determinants. One effector of the type III protein secretion system of P. aeruginosa PA103 is the virulence determinants ExoU.
The amount of Type III-dependent secretion of ExoU by P. aeruginosa PA103 can be determined in a cell-based assay by quantification of the 73.9 kDa ExoU protein scereted into the extracellular medium. Such quantitation can be achieved by growing strain PA103 in a deferrated medium in the presence of nitrilotriacetic acid (an inducer of Type III protein secretion in P. aeruginosa) and either in the presence or absence of putative inhibitors. After a prolonged growth period, the cells are sedimented and the supernatants concentrated by ammonium sulfate precipitation. The proteins in the resuspended pellets are separated by electrophoresis on SDS-polyacrylamide gels. After staining gels with Colloidal Blue™, the 73.9 kDa ExoU band is quantitated by scanning through an imager. The effects of inhibitors on the intensity of the ExoU band may be measured relative to that of untreated controls.
As for `O=C(NC(Cc1ccc(Cl)cc1)C(=O)O)c1nc(-c2ccc(C(F)(F)F)cc2)oc1-c1ccc(-c2ccccc2)cc1` (centres unmarked) [Compound 59, 2-{[5-Biphenyl-4-yl-2-(4-trifluoromethylphenyl)oxazole-4-carbonyl]amino}-3-(4-chlorophenyl)propionic acid], the inhibition at 100 µM turned out to be 84.1%. As for `O=C(NC(Cc1ccc(Cl)cc1)C(=O)O)c1nc(-c2ccc(-c3ccccc3)cc2)oc1-c1cccc(C(F)(F)F)c1` (centres unmarked) [Compound 60, 2-{[2-Biphenyl-4-yl-5-(3-trifluoromethylphenyl)oxazole-4-carbonyl]amino}-3-(4-chlorophenyl)propionic acid], the inhibition at 100 µM was determined as 90.2%.

The test is the same for the next values; noted with them: Pseudomonas aeruginosa, ExoU secreted into extracellular medium.
In turn, `O=C(N[C@@H](COCc1ccccc1)C(=O)O)c1nc(-c2ccc(Oc3ccccc3)cc2)oc1-c1ccc(Cl)nc1Cl` [Compound 37, (S)-3-Benzyloxy-2-{[5-(2,6-dichloropyridin-3-yl)-2-(4-phenoxyphenyl)oxazole-4-carbonyl]amino}propionic acid] showed an IC50 of 91.7 µM. On to `O=C(NC(Cc1ccc(Cl)cc1)C(=O)O)c1nc(-c2ccc(Oc3ccccc3)cc2)oc1-c1cnc(Cl)c(Cl)c1` (centres unmarked) [Compound 41, 3-(4-Chlorophenyl)-2-{[5-(5,6-dichloropyridin-3-yl)-2-(4-phenoxyphenyl)oxazole-4-carbonyl]amino}propionic acid], for which the IC50 came to 51.6 µM. Consider `O=C(NC(Cc1ccc(Cl)cc1)C(=O)O)c1nc(-c2ccc(C(F)(F)F)cc2)oc1-c1cc2ccccc2o1` (centres unmarked) [Compound 42, 2-{[5-Benzofuran-2-yl-2-(4-trifluoromethylphenyl)oxazole-4-carbonyl]amino}-3-(4-chlorophenyl)propionic acid], for which the concentration for half-maximal inhibition (IC50) was found to be 27.1 µM. `O=C(N[C@@H](CSCc1ccccc1)C(=O)O)c1nc(-c2ccc(-c3ccccc3)cc2)oc1-c1cnc(Cl)c(Cl)c1` [Compound 43, (R)-3-Benzylsulfanyl-2-{[2-biphenyl-4-yl-5-(5,6-dichloropyridin-3-yl)oxazole-4-carbonyl]amino}propionic acid] gave a 50% inhibitory concentration (IC50) of 45.7 µM. `O=C(NC(Cc1ccc(Cl)cc1)C(=O)O)c1nc(-c2ccc(-c3ccccc3)cc2)oc1-c1cnc(Cl)c(Cl)c1` (centres unmarked) [Compound 45, 2-{[2-Biphenyl-4-yl-5-(5,6-dichloropyridin-3-yl)oxazole-4-carbonyl]amino}-3-(4-chlorophenyl)propionic acid] returned an IC50 of 51.8 µM. Same read-out and setting: for `Cn1cc(-c2oc(-c3ccc(C(F)(F)F)cc3)nc2C(=O)NC(Cc2ccc(Cl)cc2)C(=O)O)c2ccccc21` (centres unmarked) [Compound 48, 3-(4-Chlorophenyl)-2-{[5-(1-methyl-1H-indol-3-yl)-2-(4-trifluoromethylphenyl)oxazole-4-carbonyl]amino}propionic acid] the value was 73.5 µM; for `Cc1nc(-c2ccc(-c3oc(-c4ccc(C(F)(F)F)cc4)nc3C(=O)N[C@@H](CSCc3ccccc3)C(=O)O)cc2)no1` [Compound 51, (R)-3-Benzylsulfanyl-2-{[5-[4-(5-methyl[1,2,4]oxadiazol-3-yl)phenyl]-2-(4-trifluoromethylphenyl)oxazole-4-carbonyl]amino}propionic acid], 19.5 µM. Still for that read-out and setting: the value for `O=C(N[C@@H](COCc1ccccc1)C(=O)O)c1nc(-c2ccc(-c3ccsc3)cc2)oc1-c1ccc(Cl)c(Cl)c1` [Compound 52, (S)-3-Benzyloxy-2-{[5-(3,4-dichlorophenyl)-2-(4-thien-3-yl-phenyl)oxazole-4-carbonyl]amino}propionic acid] was 56.4 µM; that for `O=C(N[C@@H](COCc1ccccc1)C(=O)O)c1nc(-c2ccc(C(F)(F)F)cc2)oc1-c1cnc2ccccc2n1` [Compound 53, (S)-3-Benzyloxy-2-{[5-quinoxalin-2-yl-2-(4-trifluoromethylphenyl)oxazole-4-carbonyl]amino}propionic acid] was 64.6 µM; that for `O=C(NC(Cc1ccc(Cl)cc1)C(=O)O)c1nc(-c2ccc(C(F)(F)F)cc2)oc1C1CCN(c2nccc(C(F)(F)F)n2)CC1` (centres unmarked) [Compound 55, 3-(4-Chlorophenyl)-2-({2-(4-trifluoromethylphenyl)-5-[1-(4-trifluoromethylpyrimidin-2-yl)piperidin-4-yl]oxazole-4-carbonyl}amino)propionic acid] was 51.7 µM. Same read-out and setting: for `O=C(N[C@@H](CSCc1ccccc1)C(=O)O)c1nc(-c2ccc(C(F)(F)F)cc2)oc1C1CCN(c2nccc(C(F)(F)F)n2)CC1` [Compound 57, (R)-3-Benzylsulfanyl-2-({2-(4-trifluoromethylphenyl)-5-[1-(4-trifluoromethylpyrimidin-2-yl)piperidin-4-yl]oxazole-4-carbonyl}amino)propionic acid] the value was 50 µM; for `O=C(N[C@@H](COCc1ccccc1)C(=O)O)c1nc(-c2ccc(-c3ccccc3)cc2)oc1-c1ccc(Cl)cc1Cl` [Compound 61, (S)-3-Benzyloxy-2-{[2-biphenyl-4-yl-5-(2,4-dichlorophenyl)oxazole-4-carbonyl]amino}propionic acid], 66.1 µM; for `O=C(N[C@@H](COCc1ccccc1)C(=O)O)c1nc(-c2ccc(-c3ccccc3)cc2)oc1-c1cccc(C(F)(F)F)c1` [Compound 62, (S)-3-Benzyloxy-2-{[2-biphenyl-4-yl-5-(3-trifluoromethylphenyl)oxazole-4-carbonyl]amino}propionic acid], 50.5 µM. For the molecule `O=C(N[C@@H](COCc1ccccc1)C(=O)O)c1nc(-c2ccc(C(F)(F)F)cc2)oc1-c1ccc(-c2ccccc2)cc1` [Compound 63, (S)-3-Benzyloxy-2-{[5-biphenyl-4-yl-2-(4-trifluoromethylphenyl)oxazole-4-carbonyl]amino}propionic acid], the midpoint of inhibition, the IC50, lay at 37.3 µM. For the molecule `O=C(N[C@H](Cc1ccc(Cl)cc1)C(=O)O)c1nc(-c2cccc3ccccc23)oc1-c1ccc(C(F)(F)F)nc1` [Compound 64, (R)-3-(4-Chlorophenyl)-2-{[2-naphthalen-1-yl-5-(6-trifluoromethylpyridin-3-yl)oxazole-4-carbonyl]amino}propionic acid], the IC50 was 51.4 µM. `O=C(N[C@@H](CSCc1ccccc1)C(=O)O)c1nc(-c2cccc3ccccc23)oc1-c1ccc(C(F)(F)F)nc1` [Compound 65, (R)-3-Benzylsulfanyl-2-{[2-naphthalen-1-yl-5-(6-trifluoromethylpyridin-3-yl)oxazole-4-carbonyl]amino}propionic acid] returned a concentration for half-maximal inhibition (IC50) of 53.1 µM. `Cc1nc(-c2ccc(-c3oc(-c4ccc(C(F)(F)F)cc4)nc3C(=O)N[C@@H](COCc3ccccc3)C(=O)O)cc2)no1` [Compound 66, (S)-3-Benzyloxy-2-{[5-[4-(5-methyl[1,2,4]oxadiazol-3-yl)phenyl]-2-(4-trifluoromethylphenyl)oxazole-4-carbonyl]amino}propionic acid] showed a 50% inhibitory concentration (IC50) of 12.5 µM.

As to `Cc1nc(-c2ccc(-c3oc(-c4ccc(C(F)(F)F)cc4)nc3C(=O)N[C@H](Cc3ccc(Cl)cc3)C(=O)O)cc2)no1` [Compound 67, 3-(4-Chlorophenyl)-2-{[5-[4-(5-methyl[1,2,4]oxadiazol-3-yl)phenyl]-2-(4-trifluoromethylphenyl)oxazole-4-carbonyl]amino}propionic acid], 12.5 µM corresponded to half-maximal inhibition (IC50). On to `O=C(N[C@@H](COCc1ccccc1)C(=O)O)c1nc(-c2ccc(-c3ccccc3)cc2)nn1-c1ccc(Cl)c(Cl)c1` [Compound 68, (S)-3-Benzyloxy-2-{[5-biphenyl-4-yl-2-(3,4-dichlorophenyl)-2H-[1,2,4]triazole-3-carbonyl]amino}propionic acid], for which the IC50 was 39.2 µM.

`O=C(NC(Cc1ccc(Cl)cc1)C(=O)O)c1nc(-c2ccc(-c3ccccc3)cc2)nn1-c1ccc(Cl)c(Cl)c1` (centres unmarked) [Compound 69, 2-{[5-Biphenyl-4-yl-2-(3,4-dichlorophenyl)-2H-[1,2,4]triazole-3-carbonyl]amino}-3-(4-chlorophenyl)propionic acid] showed an IC50 of 32.4 µM. With `O=C(N[C@@H](C[S+]([O-])Cc1ccccc1)C(=O)O)c1nc(-c2ccc(-c3ccccc3)cc2)nn1-c1ccc(Cl)c(Cl)c1` (stereo partly drawn) [Compound 70, (R)-2-{[5-Biphenyl-4-yl-2-(3,4-dichlorophenyl)-2H-[1,2,4]triazole-3-carbonyl]amino}-3-phenylmethanesulfinylpropionic acid], the IC50 was determined as 25.5 µM. The same measure, in the same setting: for `O=C(N[C@H](COCc1ccccc1)C(=O)O)c1nc(-c2ccc(-c3ccccc3)cc2)oc1-c1cccc(C(F)(F)F)c1` [Compound 71, (R)-3-Benzyloxy-2-{[2-biphenyl-4-yl-5-(3-trifluoromethylphenyl)oxazole-4-carbonyl]amino}propionic acid] the value was 45.3 µM. Take `O=C(N[C@H](COCc1ccccc1)C(=O)O)c1nc(-c2ccc(C(F)(F)F)cc2)oc1-c1ccc(-c2ccccc2)cc1` [Compound 72, (R)-3-Benzyloxy-2-{[5-biphenyl-4-yl-2-(4-trifluoromethylphenyl)oxazole-4-carbonyl]amino}propionic acid]: half-maximal inhibition (IC50) required 54.8 µM. In the case of `O=C(N[C@@H](Cc1ccc(Cl)cc1)C(=O)O)c1nc(-c2ccc(C(F)(F)F)cc2)oc1-c1ccc(-c2ccccc2)cc1` [Compound 73, (S)-2-{[5-Biphenyl-4-yl-2-(4-trifluoromethylphenyl)oxazole-4-carbonyl]amino}-3-(4-chlorophenyl)propionic acid], the IC50 was 56.1 µM.

As a reminder, the IC50 is the concentration needed to halve the response being measured. A low value points to inhibition by little substance.
